Data published in PubChem BioAssay AID488808 (NMMLSC, 2010).
Active and inactive are the calls of the source.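 How the source made its calls: active means EC50 at or below 33 microM; inactive means the rest.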

What follows are molecules tested on S. cerevisiae RPL19A-GFP strain, flow cytometry fluorescence, 3 h (assay: RPL19A-GFP modulators, KU analog potency, SAR follow-up, cell-based, S. cerevisiae, flow cytometry, KU SAR compounds (AID 488808)).

SMILES	EC50
C[C@@H]1C[C@@H]([C@H](O)CC2CC(=O)NC(=O)C2)C(=O)[C@@H](C)C1	0.87 µM
COc1ccc(/C=C/C(=O)NC(=S)NNC(=O)c2cnccn2)cc1	11.4 µM
Cc1ccc(NC(=O)c2cc(N3C(=O)C=CC3=O)ccc2N2CCOCC2)cc1Cl	0.78 µM
CCOC(=O)CSC1=NC(=O)/C(=C\c2ccc(Cl)cc2)S1	16 µM
Cc1nn2c(-c3ccncc3)nnc2c2ccccc12	4.6 µM
O=[N+]([O-])c1cc(S(=O)(=O)C(F)(F)F)ccc1Sc1nc2ccccc2s1	17.3 µM
Nc1cc(Nc2cccc(F)c2)nc(NCc2ccccc2)n1	292 µM (inactive)
CC(Oc1ccc(Cl)cc1)C(=O)NNC(=S)NC(=O)c1ccco1 (configuration not stated)	3.54 µM
CSc1nnc2c3cc(F)ccc3n(C)c2n1	1.14 µM
O=S(=O)(CCN(CCS(=O)(=O)C(F)(F)F)CC1CCCO1)C(F)(F)F (configuration not stated)	21.7 µM
CNc1nc(N)c([N+](=O)[O-])c(Nc2cc(OC)ccc2OC)n1	3.04 µM
CC(C)(C)n1nc(-c2ccc(F)cc2)c2c(N)ncnc21	1.01 µM
C[C@H]1C[C@@H](C)C(=O)[C@@H]([C@H](O)CC2CC(=O)NC(=O)C2)C1	0.42 µM
CNc1nc(N)c([N+](=O)[O-])c(Nc2cccc(F)c2)n1	5.19 µM
Cc1ccc2nc(Cl)c3nnnn3c2c1	2.11 µM
Cc1ccc(C(=O)NNC(=S)NC(=O)COc2ccccc2)cc1	52.7 µM (inactive)
COc1ccc([N+](=O)[O-])c(S(=O)(=O)c2ccc(Cl)cc2)n1	4.49 µM
O=C(NC(=S)NNC(=O)c1cnccn1)c1ccc(F)cc1	3.66 µM
COC(=O)CCS(=O)(=O)c1nc(-c2ccccc2)cc(C(F)(F)F)n1	66.5 µM (inactive)

SMILES	EC50
O=C(OCn1ncc(Br)c(Br)c1=O)c1ccc(F)cc1	4.53 µM
CC(C)(C)n1nc(-c2ccc(Cl)cc2)c2c(N)ncnc21	0.42 µM
CC(=O)Nc1ncnc2c1c(-c1ccc(Cl)cc1)nn2C(C)(C)C	11.5 µM
Cc1ccc(S(=O)(=O)c2ncccc2[N+](=O)[O-])cc1	68.6 µM (inactive)
Cc1ccc(NC(=O)c2ccc(Cl)c(N3C(=O)C=CC3=O)c2)cc1	3.03 µM
CCc1ccc(OCC(=O)NNC(=S)NC(=O)C2CC2)c(Br)c1	2.74 µM
CN(C)CCCNc1nc(N)c([N+](=O)[O-])c(Nc2cccc(F)c2)n1	106 µM (inactive)
CCOC(=O)CCS(=O)(=O)c1nc(-c2ccccc2)cc(C(F)(F)F)n1	47.9 µM (inactive)
CC(C)(C)C(=O)NC(=S)NNC(=O)c1ccc(-c2ccccc2)cc1	30.2 µM
C/C(=N\NC(=O)c1ccc(C(C)(C)C)cc1)c1ccccn1	293 µM (inactive)
COc1ccc(C(=O)NC(=S)NNC(=O)c2cnccn2)cc1	0.71 µM
CC(C)(C)C(=O)C(Cl)C(=O)Nc1ccccc1 (configuration not stated)	4.18 µM
Nc1cc(Oc2cccc(Cl)c2)nc(NCc2ccccc2)n1	252 µM (inactive)
COc1ccc([N+](=O)[O-])c(S(=O)(=O)c2ccccc2)n1	35.4 µM (inactive)
O=C(OCn1ncc(Br)c(Br)c1=O)c1c(F)cccc1F	3.55 µM
CCN(CC)C(=O)Oc1ccnc2cc(Cl)ccc12	119 µM (inactive)
c1ccc(-c2cccc(-c3ccccn3)n2)nc1	49.9 µM (inactive)
O=C(Oc1c(Cl)cc(Cl)c2cccnc12)c1cccc([N+](=O)[O-])c1	59.9 µM (inactive)
Cn1ncc(S(=O)(=O)Cc2ccccc2)c(Cl)c1=O	2.73 µM

SMILES	EC50
Clc1ccc(N=c2ssnc2Cl)cc1	2.03 µM
O=C(OCC(=O)N1CCN(C(=O)c2ccco2)CC1)c1cc(-c2cccc(Br)c2)nc2ccccc12	8.08 µM
CC1=NN(c2ccccc2)C(=O)C1C(c1ccccc1[N+](=O)[O-])C(C#N)C#N (configuration not stated)	3.65 µM
O=[N+]([O-])c1cc(Cl)c2cccnc2c1O	27.2 µM
CCOC(=O)c1c(C)oc2c1c(C(c1cccnc1)N1CCOCC1)c(O)c1ccccc12 (configuration not stated)	2.78 µM
O=c1cc(CSc2ccc(Cl)cc2)nc(-c2ccccn2)[nH]1	1.27 µM
Cc1cc(C(=O)COC(=O)c2ccc[nH]c2=O)c(C)n1-c1ccccc1F	3.28 µM
CC(C)(C)c1ccc(NC(=O)COC(=O)c2ccc([N+](=O)[O-])s2)cc1	2.02 µM
O=[N+]([O-])c1ccc(S(=O)(=O)c2cccc(C(F)(F)F)c2)nc1	1.37 µM
Cc1ccc(S(=O)(=O)c2ccc([N+](=O)[O-])cn2)cc1	3.77 µM
O=C(OCC(=O)N1CCN(C(=O)c2ccco2)CC1)c1cc(-c2ccc(F)cc2)nc2ccccc12	3.01 µM
O=C(Oc1ccnc2cc(Cl)ccc12)N1CCCCCC1	16.7 µM
Cc1cc(C(=O)Nc2nc(-c3ccccn3)cs2)ccc1[N+](=O)[O-]	85.3 µM (inactive)
O=[N+]([O-])c1ccc(O)c2ncccc12	25.4 µM
Cc1ccc(-c2nn(C(C)(C)C)c3ncnc(N)c23)cc1	1.19 µM
CN1CCN(C(=O)c2cc(COc3c(F)cccc3F)on2)CC1c1ccccc1 (configuration not stated)	58.4 µM (inactive)
CCC(C)Nc1nc(N)c([N+](=O)[O-])c(Nc2cccc(F)c2)n1 (configuration not stated)	50 µM (inactive)
CSC1=NS(=O)(=O)c2c(C)nn(C)c2S1	175 µM (inactive)
CCOC(=O)CS(=O)(=O)c1nc(-c2ccccc2)cc(C(F)(F)F)n1	30.2 µM
